# How the values were obtained:
# [1] = target: T1, glucosylceramide synthase (Homo sapiens, UniProt Q16739); assay: Glucosylceramide synthase (GCS) enzyme assay, microsome fraction, C8 glucosylceramide quantified by Rapidfire MS/MS; type: biochemical; details: test compound 10 μM; 1.7 μM UDP-glucose, 3 μM C8 ceramide; room temperature 60 min; read-out: GCS enzyme inhibitory rate at 10 μM (%) (% of control)
# T1 construct: made in house; host or cells: Expi293F cells (transient expression, pcDNA3.3-TOPO vector); microsome fraction used as enzyme source
# T1 sequence (Q16739 1-394): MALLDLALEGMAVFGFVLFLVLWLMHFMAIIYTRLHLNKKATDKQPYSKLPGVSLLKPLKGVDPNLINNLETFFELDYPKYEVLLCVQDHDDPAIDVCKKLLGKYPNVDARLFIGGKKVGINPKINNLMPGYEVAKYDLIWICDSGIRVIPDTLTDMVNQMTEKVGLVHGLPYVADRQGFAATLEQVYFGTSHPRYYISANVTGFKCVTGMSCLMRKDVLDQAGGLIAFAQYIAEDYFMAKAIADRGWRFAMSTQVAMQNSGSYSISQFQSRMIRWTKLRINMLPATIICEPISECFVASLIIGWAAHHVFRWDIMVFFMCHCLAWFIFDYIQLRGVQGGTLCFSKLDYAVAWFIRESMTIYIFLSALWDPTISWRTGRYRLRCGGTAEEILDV
# In short: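 Test compound, 10 μM final, was run against human GCS from transfected Expi293F microsome fractions, using substrate solution of 6 μM C8 ceramide (in DOPC liposomes) plus 3.4 μM UDP-glucose, pH 7.5 Tris buffer, 60 min, room temperature. Product C8 glucosylceramide measured by Rapidfire MS/MS against an internal standard, % inhibition referenced to no-enzyme and DMSO wells.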
# [2] = tested on: glucosylceramide (GlcCer); assay: Pharmacodynamic test using mouse (glucosylceramide lowering effect); type: in vivo; details: C57BL/6J mice, 10 mg/kg oral, six hours after administration, ± standard deviation
# Method: Pharmacodynamic Test Using Mouse (Glucosylceramide Lowering Effect)
# For the experiment, C57BL/6J mice were purchased from CLEA Japan, Inc. and used. Glucosylceramide synthase is an enzyme that synthesizes glucosylceramide (GlcCer) from uridine diphosphate glucose and ceramide. Therefore, the glucosylceramide synthase inhibitory effect of the compound of Example 119 was evaluated by measuring the GlcCer concentration in the tissue.
# The test compound was prepared in a 0.5% methylcellulose suspension to a dose of 10 mg/kg, and orally administered. Six hours after the administration, the blood and cerebral cortex were collected, the plasma was prepared from the blood, and methanol is added to the cerebral cortex to prepare a homogenate. A mixed solution of isopropanol and ethanol was added to the obtained plasma and the methanol homogenate of the cerebral cortex, and the lipids were extracted. The GlcCer concentrations of the extracted samples were measured by LC/MS/MS.
# The results were calculated from the following formula: (GlcCer concentration in the test compound administration group)/(GlcCer concentration in the 0.5% methylcellulose suspension administration group)×100.
# The standard deviation values were also shown.
# [3] = tested on: glucosylceramide (GlcCer); assay: Pharmacodynamic test using Gaucher's disease model mouse (glucosylceramide lowering effect); type: in vivo; details: Gba D409V KI mice, two hours after last administration, ± standard deviation
# Method: (§1) Pharmacodynamic Test Using Gaucher's Disease Model Mouse (Glucosylceramide and Glucosylsphingosine Lowering Effects)
# (§2) Glucosylsphingosine (GlcSph) is known to be produced by deacylation of GlcCer and accumulated in tissues in patient with Gaucher's disease. Therefore, the GlcSph lowering effect of the compound of Example 119 due to the glucosylceramide synthase inhibitory effect was evaluated by measuring the GlcSph concentration in the tissue. For the experiment, Gba D409V KI mice, which were Gaucher's disease model mice in which GlcSph is accumulated, were purchased from Jackson Laboratory and used.
# (§3) The test compound was prepared in a 0.5% methylcellulose suspension to a dose of 10 or 30 mg/kg, and orally administered. The administration was performed once a day for 2 months. Two hours after the last administration, the blood and cerebral cortex were collected, the plasma was prepared from the blood, and methanol is added to the cerebral cortex to prepare a homogenate. A mixed solution of isopropanol and ethanol was added to the obtained plasma and the methanol homogenate of the cerebral cortex, and the lipids were extracted. The GlcCer and GlcSph concentrations of the extracted samples were measured by LC/MS/MS.
# (§4) The results of GlcCer were calculated from the following formula: (GlcCer concentration in the test compound administration group)/(GlcCer concentration in the 0.5% methylcellulose suspension administration group)×100. The results of GlcSph were calculated from the following formula: (GlcSph concentration in the test compound administration group)/(GlcSph concentration in the 0.5% methylcellulose suspension administration group)×100. The standard deviation values were also shown.
# [4] = tested on: Glucosylsphingosine (GlcSph); assay: Pharmacodynamic test using Gaucher's disease model mouse (glucosylsphingosine lowering effect); type: in vivo; details: Gba D409V KI mice, two hours after last administration, ± standard deviation
# Method: as §1, §2, §3, §4
# [5] = 10 mg/kg oral once a day for 2 months, cerebral cortex
# [6] = 10 mg/kg oral once a day for 2 months, plasma
# [7] = 30 mg/kg oral once a day for 2 months, cerebral cortex
# [8] = 30 mg/kg oral once a day for 2 months, plasma
compound,measurement,setting,value
"CC(C)(O)c1ccc(N2Cc3c(ccnc3-c3ccc(F)cc3OCC(F)(F)F)C2=O)cc1 [Example 119, 4-[4-fluoro-2-(2,2,2-trifluoroethoxy)phenyl]-2-[4-(2-hydroxypropan-2-yl)phenyl]-2,3-dihydro-1H-pyrrolo[3,4-c]pyridin-1-one]",inhibition at 10 µM,[1],100%
same,GlcCer (% Control) cerebral cortex,[2]; cerebral cortex,52 ± 7 % Control
same,GlcCer (% Control) plasma,[2]; plasma,49 ± 14 % Control
same,GlcCer (% Control) cerebral cortex (10 mg/kg),[3]; [5],58 ± 6 % Control
same,GlcCer (% Control) Plasma (10 mg/kg),[3]; [6],40 ± 10 % Control
same,GlcCer (% Control) cerebral cortex (30 mg/kg),[3]; [7],40 ± 7 % Control
same,GlcCer (% Control) Plasma (30 mg/kg),[3]; [8],21 ± 4 % Control
same,GlcSph (% Control) cerebral cortex (10 mg/kg),[4]; [5],73 ± 27 % Control
same,GlcSph (% Control) Plasma (10 mg/kg),[4]; [6],58 ± 16 % Control
same,GlcSph (% Control) cerebral cortex (30 mg/kg),[4]; [7],61 ± 20 % Control
same,GlcSph (% Control) Plasma (30 mg/kg),[4]; [8],36 ± 9 % Control
